Publication PMC6272152, “The Role of Phosphoglycans in the Susceptibility of Leishmania mexicana to the Temporin Family of Anti-Microbial Peptides” (Molecules, 2015)

Experiments:
[1] = test system: L. infantum axenic amastigotes; conditions: cited from earlier work
From the text: (§1) L. infantum is an Old World species and a member of the L. donovani complex, causing visceral disease in the Mediterranean basin, which has subsequently spread to Latin America where it is sometimes known as L. chagasi. Like L. mexicana, L. pifanoi is a New World species, however it is part of the subgenus Viannia whereas L. mexicana is part of the subgenus Leishmania which actually makes it ...

[2] = test system: L. mexicana ∆lpg1 promastigotes (lacking LPG); assay: alamarBlue viability assay, ∆lpg1 mutant promastigotes; assay type: cell-based, Leishmania mexicana; conditions: alamarBlue viability vs DMSO control, 2–100 µM peptide, 1 h preincubation serum-free at 26 °C, then 24 h, mean (range) of at least 3 independent experiments in triplicate
Procedure: Previously it has been postulated that LPG, which forms a thick negatively charged layer, protects the promatigote parasite from cationic AMPs by capturing them and preventing interaction with the cell surface. […] To test this hypothesis the five temporins were assayed for their activity against L. mexicana promastigotes engineered to lack LPG, ∆lpg1 [23]. […] The results obtained were perhaps surprising, with the temporins showing little or no difference in efficacy against the ∆lpg1 mutant when compared with the wild type L. mexicana promastigotes (Figure 1A and Figure 2A; Table 2). However, it is notable the that efficacy of temporins A and B have previously been reported to be unchanged against a similar, although less defined, L. donovani LPG mutant.
(§2) Figure 2 Activity of the temporin peptides against ∆lpg1 and ∆lpg2 promastigote L. mexicana. Using the alamarBlue® assay system, L. mexicana ∆lpg1 (A) and ∆lpg2 (B) mutant promastigote viability in the presence of various concentrations (2–100 µM) of the temporin peptides was determined with respect to a DMSO control. Amphotericin B (2–100 µM) was utilized as a positive control. Data points represent the mean of 3 independent experiments performed in triplicate. Standard deviation indicated. Cell viability <50% indicated by red bars.
(§3) Leishmania mexicana (MNYC/BZ/62/M379) wild type and LPG mutant parasites (∆lpg1 [23] and ∆lpg2 [25]) were maintained at 26 °C in Schneider’s Drosophila media (Sigma Aldrich) supplemented with heat inactivated foetal bovine sera (15% for promastigotes and mutants, and 20% for amastigotes; Biosera). Promastigotes were transformed into axenic amastigotes by a pH and temperature shift as previously described. Cells were counted using a Neubauer Improved Haemocytometer. Cytotoxicity analyses were performed in 96-well plates (Costar, Corning Inc., Amsterdam, The Netherlands) using alamarBlue® (Life Technologies, Paisley, UK) with some modifications to the published, optimized protocol. Briefly, to mitigate against the effects of serum on the efficacy of the peptides, promastigote and amastigote L. mexicana were preincubated (26 °C for promatastigotes; 33 °C for amastigotes) with the temporins (2–100 µM) in 10 µL of serum-free media at 4 × 10^6 mL^−1 for 1 h before the addition of 90 µL of complete media. Following incubation at the appropriate temperature for 24 h, 10 µL of alamarBlue® was added to each well and the plates incubated for a further 4 h prior to assessing cell viability using a fluorescent plate reader (Biotek UK, Potton, UK; 560EX nm/600EM nm). All data points were in triplicate, with amphotericin B as positive and DMSO as negative controls. All of the experiments described above were carried out on a minimum of three separate occasions to ensure a robust data set was collected.

[3] = test system: L. mexicana promastigote (wild type); assay: alamarBlue viability assay, wild type promastigotes; assay type: cell-based, Leishmania mexicana (MNYC/BZ/62/M379); conditions: alamarBlue viability vs DMSO control, 2–100 µM peptide, 1 h preincubation in serum-free media at 26 °C, then complete media 24 h, alamarBlue 4 h, fluorescence, mean (range) of at least 3 independent experiments in triplicate
Procedure: as §2, with “Figure 1” for “Figure 2”, “against wild type promastigote” for “against ∆lpg1”, “and amastigote” for “and ∆lpg2 promastigote”, “mexicana promastigote” for “mexicana ∆lpg1”, “and amastigote” for “and ∆lpg2”, “(B)” for “(B) mutant promastigote”
as §3

L. mexicana amastigote = assay: alamarBlue viability assay, axenic amastigotes; assay type: cell-based, Leishmania mexicana (MNYC/BZ/62/M379); conditions: for ED50 L. mexicana Amastigote: alamarBlue viability vs DMSO control, 2–100 µM peptide, 1 h preincubation in serum-free media at 33 °C, then complete media 24 h, alamarBlue 4 h, fluorescence, mean (range) of at least 3 independent experiments in triplicate
Procedure: as §2, with “Figure 1” for “Figure 2”, “against wild type promastigote” for “against ∆lpg1”, “and amastigote” for “and ∆lpg2 promastigote”, “mexicana promastigote” for “mexicana ∆lpg1”, “and amastigote” for “and ∆lpg2”, “(B)” for “(B) mutant promastigote”
as §3

[4] = test system: L. mexicana ∆lpg2 promastigotes (lacking LPG and PPG); assay: alamarBlue viability assay, ∆lpg2 mutant promastigotes; assay type: cell-based, Leishmania mexicana; conditions: for ED50 L. mexicana ∆lpg2: ∆lpg2 mutant promastigotes, alamarBlue viability vs DMSO control, 2–100 µM peptide, 1 h preincubation serum-free at 26 °C, then 24 h, mean (range) of at least 3 independent experiments in triplicate
Procedure: as §2
Proteophosphogylcans (PPGs) are a large range of secreted and cell surface associated parasite glycoconjugates which, like LPG, carry a negative charge. Both axenic and intramacrophage L. mexicana amastigotes lack cell surface associated PPG, although the intracellular parasites do secrete a form of PPG known as aPPG [26, 27]. Targeted deletion of lpg2, a Golgi GDP-Man transporter, to create ∆lpg2 [25] prevented the formation of the phosphoglycan repeats that make up the backbone of LPG and PPG leaving the promastigote surface devoid of these negatively charged macromolecules. […] Like the temporins, amphotericin B is a pore forming compound [28].
as §3

[5] = test system: L. pifanoi axenic amastigotes; conditions: cited from earlier work
From the text: as §1

L. donovani LPG mutant = conditions: similar, less defined LPG mutant; cited from earlier work
From the text: Previously it has been postulated that LPG, which forms a thick negatively charged layer, protects the promatigote parasite from cationic AMPs by capturing them and preventing interaction with the cell surface. […] To t ...

Row | Compound | ED50 L. mexicana ∆lpg1 [2] | ED50 L. mexicana Promastiogte [3] | ED50 L. mexicana Amastigote (L. mexicana amastigote) | ED50 L. mexicana ∆lpg2 [4] | activity against axenic amastigotes of L. pifanoi [5] | efficacy against L. donovani LPG mutant (L. donovani LPG mutant) | also measured
1 | FLSGIVGMLGKLF-NH2 [Temporin 1Sa, amphibian-derived temporin antimicrobial peptide, […]-NH2] | 6 (3–18) µM | 4 (3–13) µM | 42 (35–44) µM | 31 (28–35) µM | – | – | activity against axenic amastigotes of L. infantum [1]: significant activity; ED50 L. mexicana Promastiogte ([3]; listed as temporin 1Sa): 4 µM; ED50 L. mexicana Amastigote (L. mexicana amastigote; listed as 1Sa): 42 µM; ED50 L. mexicana ∆lpg2 ([4]; listed as 1Sa): 31 µM
2 | LLPIVGNLLKSLL-NH2 [Temporin B, amphibian-derived temporin antimicrobial peptide, […]-NH2] | 39 (28–70) µM | 38 (24–64) µM | >100 µM | 41 (40–41) µM | significant activity | unchanged | ED50 L. mexicana Promastiogte ([3]; listed as temporin B): 38 µM; activity against amastigote form at the maximal concentration tested (L. mexicana amastigote; 100 µM, alamarBlue): inactive
3 | FVQWFSKFLGRIL-NH2 [Temporin L, amphibian-derived temporin antimicrobial peptide, …-NH2] | 4 (3–6) µM | 5 (5–6) µM | 83 (46–93) µM | 9 (8–12) µM | – | – | ED50 L. mexicana Promastiogte ([3]; listed as L): 5 µM; ED50 L. mexicana Amastigote (L. mexicana amastigote; listed as L): 83 µM; ED50 L. mexicana ∆lpg2 ([4]; listed as L): 9 µM
4 | FLPLIGRVLSGIL-NH2 [Temporin A, amphibian-derived temporin antimicrobial peptide, […]-NH2] | 11 (8–16) µM | 8 (6–14) µM | ~100 µM | 26 (21–39) µM | significant activity | unchanged | ED50 L. mexicana Promastiogte ([3]; listed as temporin A): 8 µM; ED50 L. mexicana Amastigote (L. mexicana amastigote; listed as temporin A): approximately 100 µM; ED50 L. mexicana ∆lpg2 ([4]; listed as temporin A): 26 µM
5 | C[C@@H]1[C@H](O)[C@@H](C)/C=C/C=C/C=C/C=C/C=C/C=C/C=C/[C@H](O[C@@H]2O[C@H](C)[C@@H](O)[C@H](N)[C@@H]2O)C[C@@H]2O[C@](O)(C[C@@H](O)C[C@@H](O)[C@H](O)CC[C@@H](O)C[C@@H](O)CC(=O)O[C@H]1C)C[C@H](O)[C@H]2C(=O)O [amphotericin B, Amphotericin B, reference compound] | – | – | – | – | – | – | efficacy against ∆lpg2 compared with wild type promastigotes ([4]; positive control, 2–100 µM, alamarBlue, Figure 2B): less effective
